The values below come from ChEMBL document CHEMBL6109101, “Synthesis and bioactivity of cyclic peptide GG-8-6 analogues as anti-hepatocellular carcinoma agents” (Eur J Med Chem, 2025).

Data set [1] deals with MHCC97H. Description: Antitumor activity against human MHCC97H cells xenografted in nude mouse assessed as tumor growth inhibition at 20 mg/kg, po administered daily for 3 weeks relative to control. Format: functional. To be noted: 504 h, read-out: TGI. A general note: Xenograft models place foreign cells or tissue in a host animal.
The test system of data set [2] is Huh-7. Description: Cytotoxicity against human Huh-7 cells assessed as inhibition of cell proliferation incubated for 48 hrs by MTT assay. The conditions noted are these: Huh-7, 48 h. It is filed as functional, cell-based. In general terms: Tetrazolium assays rely on reduction of a dye to a coloured formazan, in cell work by metabolically active cells.
Data set [3] can be described thus: Toxicity in nude mouse implanted with human MHCC97H cells assessed as body weight at 20 mg/kg, po administered daily for 3 weeks and measured immediately (reference value: 25.05 g). Format: organism-based. The conditions noted are these: in vivo, 504 h.
Data set [4] relates to MHCC97H. Description: Antitumor activity against human MHCC97H cells xenografted in nude mouse assessed as tumor weight at 20 mg/kg, po administered daily for 3 weeks (reference value: 1.667g). Format: functional.
The test system of data set [5] is HCCLM3. As to the kind of experiment: Cytotoxicity against human HCCLM3 cells assessed as inhibition of cell proliferation incubated for 48 hrs by MTT assay. Format: functional, cell-based. To be noted: HCCLM3, 48 h.
In data set [6] the test system is HepG2. Description: Cytotoxicity against human HepG2 cells assessed as inhibition of cell proliferation incubated for 48 hrs by MTT assay. To be noted: HepG2, 48 h. It is filed as functional, cell-based.
Data set [7] has as its system MHCC97H. As to the kind of experiment: Cytotoxicity against human MHCC97H cells assessed as inhibition of cell proliferation incubated for 48 hrs by MTT assay. Format: functional, cell-based.
The test system of data set [8] is MHCC97H. Description: Antitumor activity against human MHCC97H cells xenografted in nude mouse assessed as tumor weight at 10 mg/kg, po administered daily for 3 weeks (reference value: 1.667g). Format: functional.
Data set [9] relates to HepG2. Description: Antiproliferative activity against human HepG2 cells assessed as reduction in intracellular ATP level at 10 uM incubated for 48 hrs by luminometer analysis relative to control. Format: functional. Details: scale not given: the % may be the effect or the level left.
Data set [10] deals with Huh-7. As to the kind of experiment: Antiproliferative activity against human Huh-7 cells assessed as reduction in intracellular ATP level at 10 uM incubated for 48 hrs by luminometer analysis relative to control. On the set-up: scale not given: the % may be the effect or the level left. Format: functional.
Data set [11] has as its system MHCC97H. As to the kind of experiment: Antitumor activity against human MHCC97H cells xenografted in nude mouse assessed as tumor growth inhibition at 15 mg/kg, po administered daily for 3 weeks relative to control. Format: functional. The conditions noted are these: 504 h, read-out: TGI.
For data set [12], the system named is MHCC97H. As to the kind of experiment: Antitumor activity against human MHCC97H cells xenografted in nude mouse assessed as tumor weight at 15 mg/kg, po administered daily for 3 weeks (reference value: 1.667g). Format: functional.
For data set [13], the system named is MHCC97H. Description: Antitumor activity against human MHCC97H cells xenografted in nude mouse assessed as tumor weight at 5 mg/kg, po administered daily for 3 weeks (reference value: 1.667g). It is filed as functional.
In data set [14] the test system is MHCC97H. Description: Antitumor activity against human MHCC97H cells xenografted in nude mouse assessed as tumor growth inhibition at 5 mg/kg, po administered daily for 3 weeks relative to control. To be noted: 504 h, read-out: TGI. Format: functional.
Data set [15] relates to HCCLM3. As to the kind of experiment: Antiproliferative activity against human HCCLM3 cells assessed as reduction in intracellular ATP level at 10 uM incubated for 48 hrs by luminometer analysis relative to control. It is filed as functional. On the set-up: scale not given: the % may be the effect or the level left.
Data set [16] has as its system MHCC97H. As to the kind of experiment: Antitumor activity against human MHCC97H cells xenografted in nude mouse assessed as tumor growth inhibition at 10 mg/kg, po administered daily for 3 weeks relative to control. Format: functional. The conditions noted are these: 504 h, read-out: TGI.
For data set [17], the system named is MHCC97H. As to the kind of experiment: Antiproliferative activity against human MHCC97H cells assessed as reduction in intracellular ATP level at 10 uM incubated for 48 hrs by luminometer analysis relative to control. Format: functional. Details: scale not given: the % may be the effect or the level left.
The test system of data set [18] is MHCC97H. As to the kind of experiment: Antiproliferative activity against human MHCC97H cells assessed as reduction in intracellular ATP level at 30 uM incubated for 48 hrs by luminometer analysis relative to control. Format: functional. On the set-up: scale not given: the % may be the effect or the level left.
In data set [19] the test system is HCCLM3. Description: Cytotoxicity against human HCCLM3 cells assessed as cell viability incubated at 12 to 48 hrs hrs by MTT assay. It is filed as functional, cell-based. To be noted: dose <= 40.0 µM, time 12-48 hrs.
In data set [20] the test system is MHCC97H. As to the kind of experiment: Cytotoxicity against human MHCC97H cells assessed as cell viability up to 40 uM by MTT assay. It is filed as functional, cell-based. The conditions noted are these: time 12-48 hrs.
Data set [21] deals with HCCLM3. Description: Cytotoxicity against human HCCLM3 cells assessed as cell viability up to 40 uM measured at 24 to 48 hrs by MTT assay. It is filed as functional, cell-based. To be noted: time 24-48 hrs.
Data set [22] deals with HCCLM3. Description: Cytotoxicity against human HCCLM3 cells assessed as reduction in cell viability up to 40 uM measured at 48 hrs by MTT assay. It is filed as functional, cell-based.
For data set [23], the system named is HCCLM3. As to the kind of experiment: Cytotoxicity against human HCCLM3 cells assessed as cell viability up to 40 uM by MTT assay. Format: functional, cell-based. The conditions noted are these: time 12-48 hrs.
The test system of data set [24] is MHCC97H. Description: Cytotoxicity against human MHCC97H cells assessed as cell viability incubated at 12 to 48 hrs hrs by MTT assay. Format: functional, cell-based. To be noted: dose <= 40.0 µM, time 12-48 hrs.
Data set [25] relates to HCCLM3. As to the kind of experiment: Cytotoxicity against human HCCLM3 cells assessed as reduction in cell viability at 40 uM measured at 48 hrs by MTT assay. Format: functional, cell-based.
For data set [26], the system named is MHCC97H. As to the kind of experiment: Cytotoxicity against human MHCC97H cells assessed as reduction in cell viability at 40 uM measured after 48 hrs by MTT assay. Format: functional, cell-based.
For data set [27], the system named is MHCC97H. Description: Cytotoxicity against human MHCC97H cells assessed as cell viability up to 40 uM measured at 12 hrs by MTT assay. Format: functional, cell-based.
Data set [28] concerns MHCC97H. Description: Cytotoxicity against human MHCC97H cells assessed as cell viability up to 40 uM measured at 24 to 48 hrs by MTT assay. It is filed as functional, cell-based. The conditions noted are these: time 24-48 hrs.
Data set [29] deals with HCCLM3. Description: Cytotoxicity against human HCCLM3 cells assessed as reduction in cell viability at 40 uM measured after 48 hrs by MTT assay. Format: functional, cell-based.
Data set [30] concerns MHCC97H. As to the kind of experiment: Cytotoxicity against human MHCC97H cells assessed as reduction in cell viability at 40 uM measured at 48 hrs by MTT assay. Format: functional, cell-based.
Data set [31] concerns MHCC97H. Description: Antitumor activity against human MHCC97H cells xenografted in nude mouse assessed as increase in apoptotic cells at 5 to 10 mg/kg, po administered daily for 3 weeks by TUNEL staining based assay. Format: functional, organism-based. To be noted: dose 5-10 mg/kg.
For data set [32], the system named is HCCLM3. Description: Cytotoxicity against human HCCLM3 cells assessed as cell viability up to 40 uM measured at 12 hrs by MTT assay. It is filed as functional, cell-based.
Data set [33] concerns MHCC97H. Description: Cytotoxicity against human MHCC97H cells assessed as reduction in cell viability up to 40 uM measured at 48 hrs by MTT assay. Format: functional, cell-based.
Data set [34] deals with MHCC97H. As to the kind of experiment: Antitumor activity against human MHCC97H cells xenografted in nude mouse assessed as increase in apoptotic cells at 15 mg/kg, po administered daily for 3 weeks by TUNEL staining based assay. It is filed as functional, organism-based.
Data set [35] deals with MHCC97H. Description: Cytotoxicity against human MHCC97H cells assessed as reduction in cell viability at 40 uM by MTT assay. Format: functional, cell-based. To be noted: time 48.0 hrs.
Data set [36] concerns HCCLM3. Description: Cytotoxicity against human HCCLM3 cells assessed as reduction in cell viability at 40 uM by MTT assay. It is filed as functional, cell-based. The conditions noted are these: time 48.0 hrs.

Calls of active or inactive are those of the source. No cut-off for these calls is given here.

The term IC50 denotes the concentration that inhibits the measured activity by half. Take `CNC(=O)c1cc(Oc2ccc(NC(=O)Nc3ccc(Cl)c(C(F)(F)F)c3)cc2)ccn1` [SORAFENIB]: in the data set on MHCC97H [1], the inhibition in vivo at 20 mg/kg came out at 42.8%. Also, the IC50 amounted to 13.8 µM with Huh-7 [2], 9.22 µM in the data set with HCCLM3 [5], 13.8 µM in the data set on HepG2 [6] and 15.2 µM in the data set with MHCC97H [7]. The Activity in [3] was 26.85 g; in the data set on MHCC97H [4], 0.955 g.

Take `CC[C@H](C)[C@@H]1NC(=O)[C@@H]2CCCN2C(=O)[C@H](CC(C)C)NC(=O)[C@H](CO)NC(=O)[C@H](CC(C)C)NC(=O)[C@H](C(C)C)NC(=O)[C@H](CC(C)C)NC(=O)[C@H](CC(C)C)NC(=O)[C@H](CC(C)C)NC1=O`: the Activity with MHCC97H [8] is reported as 0.732 g; in the data set on HepG2 [9], 47.1%; in the data set with Huh-7 [10], 47.3%; with MHCC97H [12], 0.695 g; in the data set with MHCC97H [13], 0.552 g; with HCCLM3 [15], 45.9%. The Activity was 47.3% in the data set with MHCC97H [17] and 61.9% with MHCC97H [18]. Also, in the data set on MHCC97H [11], the inhibition in vivo at 15 mg/kg was 58.4%. In the data set on MHCC97H [14], the inhibition in vivo at 5 mg/kg came to 66.9%. Also, the inhibition in vivo at 10 mg/kg with MHCC97H [16] was 56.1%.

`CC[C@@H](C)[C@H]1NC(=O)[C@@H]2CCCN2C(=O)[C@@H](CC(C)C)NC(=O)[C@H](COC(C)(C)C)NC(=O)[C@@H](CC(C)C)NC(=O)[C@H](C(C)C)NC(=O)[C@H](CC(C)C)NC(=O)[C@H](CC(C)C)NC(=O)[C@H](CC(C)C)NC1=O`: the Activity entry is “Dose-dependent-effect” with HCCLM3 [19], “Time-dependent-effect” in the data set with MHCC97H [20], “Time-dependent-effect” in the data set on HCCLM3 [23] and “Dose-dependent-effect” in the data set on MHCC97H [24]. Also, the result with HCCLM3 [21], in the data set with HCCLM3 [22], in the data set on HCCLM3 [25], in the data set with MHCC97H [26], in the data set with MHCC97H [27] and in the data set with MHCC97H [28] was Active. The outcome with HCCLM3 [29], with MHCC97H [30], in the data set on MHCC97H [31], in the data set on HCCLM3 [32] and with MHCC97H [33] was Active.

As to `CC[C@@H](C)[C@H]1NC(=O)[C@@H]2CCCN2C(=O)[C@@H](CC(C)C)NC(=O)[C@H](CO)NC(=O)[C@@H](CC(C)C)NC(=O)[C@H](C(C)C)NC(=O)[C@H](CC(C)C)NC(=O)[C@H](CC(C)C)NC(=O)[C@H](CC(C)C)NC1=O`, the Activity result is “Dose-dependent-effect” in the data set with HCCLM3 [19]; “Time-dependent-effect” in the data set with MHCC97H [20]; “Time-dependent-effect” in the data set on HCCLM3 [23]; “Dose-dependent-effect” in the data set with MHCC97H [24]; “Time-dependent-effect” in the data set with MHCC97H [35]; “Time-dependent-effect” in the data set on HCCLM3 [36]. Besides, the outcome with HCCLM3 [21], in the data set with MHCC97H [34], in the data set with HCCLM3 [22], in the data set on HCCLM3 [25], with MHCC97H [27] and in the data set with MHCC97H [28] was Active. For the same compound, the result in the data set on MHCC97H [30], with HCCLM3 [32] and with MHCC97H [33] was Active.

For the compound `CC[C@H](C)[C@@H]1NC(=O)[C@@H]2CCCN2C(=O)[C@H](CC(C)C)NC(=O)[C@H](COC(C)(C)C)NC(=O)[C@H](CC(C)C)NC(=O)[C@H](C(C)C)NC(=O)[C@H](CC(C)C)NC(=O)[C@H](CC(C)C)NC(=O)[C@H](CC(C)C)NC1=O`, the Activity with MHCC97H [8] amounted to 0.262 g; in the data set with HepG2 [9] it was 41.1%; in the data set with Huh-7 [10], 81.8%; in the data set with MHCC97H [13], 0.052 g; in the data set with HCCLM3 [15] it was 99.9%; with MHCC97H [17], 87.8%. Moreover, the inhibition in vivo at 5 mg/kg with MHCC97H [14] came out at 68.9%. In the data set with MHCC97H [16], the inhibition in vivo at 10 mg/kg came out at 84.3%.
